This note sets out measurements from ChEMBL document CHEMBL1126615, “Structure-activity relationships in prazosin-related compounds. 2. Role of the piperazine ring on alpha-blocking activity” (J Med Chem, 1993).

Structures are written as SMILES.

Experiment [1] deals with T1, Adrenergic receptor alpha-2 (Rattus norvegicus, UniProt P22086+P19328+P22909).
T1 sequence (P22086 whole entry): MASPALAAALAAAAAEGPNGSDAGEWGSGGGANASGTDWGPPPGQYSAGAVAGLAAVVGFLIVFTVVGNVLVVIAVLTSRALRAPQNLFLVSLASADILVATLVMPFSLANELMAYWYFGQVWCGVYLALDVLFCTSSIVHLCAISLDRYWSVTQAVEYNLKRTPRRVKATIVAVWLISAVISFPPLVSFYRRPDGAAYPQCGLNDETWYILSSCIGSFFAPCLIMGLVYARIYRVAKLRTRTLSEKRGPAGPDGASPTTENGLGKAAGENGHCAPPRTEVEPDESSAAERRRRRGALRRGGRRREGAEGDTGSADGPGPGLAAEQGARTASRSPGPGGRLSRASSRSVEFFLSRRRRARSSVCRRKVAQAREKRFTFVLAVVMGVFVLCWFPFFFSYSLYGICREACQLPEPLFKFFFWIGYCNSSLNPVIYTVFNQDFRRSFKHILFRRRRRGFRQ
T1 sequence (P19328 whole entry): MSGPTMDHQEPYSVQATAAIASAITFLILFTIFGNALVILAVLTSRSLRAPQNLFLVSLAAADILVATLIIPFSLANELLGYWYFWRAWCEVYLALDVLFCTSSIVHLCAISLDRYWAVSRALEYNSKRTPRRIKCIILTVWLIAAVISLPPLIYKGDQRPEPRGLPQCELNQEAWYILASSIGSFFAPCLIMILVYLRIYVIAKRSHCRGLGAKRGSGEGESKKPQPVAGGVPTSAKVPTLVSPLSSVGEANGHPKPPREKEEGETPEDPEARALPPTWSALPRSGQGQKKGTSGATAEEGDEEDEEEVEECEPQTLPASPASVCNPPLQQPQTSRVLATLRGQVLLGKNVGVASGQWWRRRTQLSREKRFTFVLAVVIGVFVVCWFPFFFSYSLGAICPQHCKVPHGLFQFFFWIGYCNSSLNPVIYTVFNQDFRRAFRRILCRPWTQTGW
T1 sequence (P22909 whole entry): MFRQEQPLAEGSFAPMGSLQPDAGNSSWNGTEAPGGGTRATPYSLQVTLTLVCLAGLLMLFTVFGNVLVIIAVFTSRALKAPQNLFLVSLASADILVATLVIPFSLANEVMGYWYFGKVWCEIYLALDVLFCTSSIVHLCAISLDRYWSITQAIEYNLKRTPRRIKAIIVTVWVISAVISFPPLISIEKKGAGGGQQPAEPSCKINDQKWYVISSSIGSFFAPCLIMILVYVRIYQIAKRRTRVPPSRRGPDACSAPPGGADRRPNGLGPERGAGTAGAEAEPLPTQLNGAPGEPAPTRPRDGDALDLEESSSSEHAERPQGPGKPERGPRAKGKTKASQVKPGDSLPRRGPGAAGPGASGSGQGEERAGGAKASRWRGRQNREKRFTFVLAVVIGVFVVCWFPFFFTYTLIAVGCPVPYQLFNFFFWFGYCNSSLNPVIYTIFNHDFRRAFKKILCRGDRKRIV
Briefly: Alpha-2 Adrenoceptor blocking activity as antagonism of clonidine-induced depression of field-stimulated prostatic rat vas deferens. In kind it is functional, tissue-based.

In experiment [2] the target is T2, Adrenergic receptor alpha-1 (Rattus norvegicus, UniProt P15823+P23944+P43140).
T2 sequence (P15823 whole entry): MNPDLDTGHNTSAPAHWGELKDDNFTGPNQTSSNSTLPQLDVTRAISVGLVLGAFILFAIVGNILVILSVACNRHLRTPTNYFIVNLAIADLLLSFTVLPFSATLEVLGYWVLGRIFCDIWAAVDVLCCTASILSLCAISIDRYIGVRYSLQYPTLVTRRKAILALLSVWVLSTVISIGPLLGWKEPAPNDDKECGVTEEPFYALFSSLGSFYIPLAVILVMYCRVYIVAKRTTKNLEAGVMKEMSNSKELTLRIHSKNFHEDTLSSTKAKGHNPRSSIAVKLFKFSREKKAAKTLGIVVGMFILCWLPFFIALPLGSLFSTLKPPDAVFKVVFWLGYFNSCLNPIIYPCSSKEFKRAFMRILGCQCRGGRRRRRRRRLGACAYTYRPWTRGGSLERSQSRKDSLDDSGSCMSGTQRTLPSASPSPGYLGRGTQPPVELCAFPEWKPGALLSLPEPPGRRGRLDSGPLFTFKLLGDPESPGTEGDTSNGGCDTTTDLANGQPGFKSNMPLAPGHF
T2 sequence (P23944 whole entry): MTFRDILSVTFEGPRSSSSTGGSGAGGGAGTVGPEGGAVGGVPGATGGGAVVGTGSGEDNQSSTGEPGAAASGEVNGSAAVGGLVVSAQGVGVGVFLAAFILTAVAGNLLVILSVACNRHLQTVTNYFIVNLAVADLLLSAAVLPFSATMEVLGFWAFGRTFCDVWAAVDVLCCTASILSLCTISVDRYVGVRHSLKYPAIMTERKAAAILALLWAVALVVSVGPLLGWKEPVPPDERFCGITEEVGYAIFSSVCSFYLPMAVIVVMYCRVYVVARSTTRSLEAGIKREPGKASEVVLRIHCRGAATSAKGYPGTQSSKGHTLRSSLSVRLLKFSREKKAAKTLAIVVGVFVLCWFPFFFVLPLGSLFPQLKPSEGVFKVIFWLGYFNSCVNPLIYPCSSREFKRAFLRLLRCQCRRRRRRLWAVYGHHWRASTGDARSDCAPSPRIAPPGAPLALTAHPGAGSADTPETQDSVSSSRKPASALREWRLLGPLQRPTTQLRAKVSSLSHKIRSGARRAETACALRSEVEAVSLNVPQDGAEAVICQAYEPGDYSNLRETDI
T2 sequence (P43140 whole entry): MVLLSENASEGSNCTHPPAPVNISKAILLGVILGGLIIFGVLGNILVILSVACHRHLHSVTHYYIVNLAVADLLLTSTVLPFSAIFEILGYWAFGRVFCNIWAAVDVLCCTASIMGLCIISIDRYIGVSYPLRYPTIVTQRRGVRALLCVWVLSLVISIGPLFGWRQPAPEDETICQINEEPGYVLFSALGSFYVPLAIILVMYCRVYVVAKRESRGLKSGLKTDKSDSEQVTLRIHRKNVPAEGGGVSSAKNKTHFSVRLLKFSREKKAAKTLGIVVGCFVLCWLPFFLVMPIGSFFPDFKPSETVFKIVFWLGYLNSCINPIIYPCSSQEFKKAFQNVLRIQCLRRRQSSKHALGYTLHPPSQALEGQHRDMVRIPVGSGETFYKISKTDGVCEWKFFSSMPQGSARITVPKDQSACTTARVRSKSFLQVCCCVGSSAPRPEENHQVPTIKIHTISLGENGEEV
Briefly: Alpha-1 Adrenoceptor blocking activity as antagonism of norepinephrine-induced contractions of epididymal portion of rat vas deferens. In kind it is functional, tissue-based.

The nature of experiment [3]: The alpha1/alpha2 selectivity ratio is the antilog of the difference between pA2 values at alpha1 and alpha-2 adrenoceptor. In kind it is functional.

As usually defined, the pA2 is a measure of antagonist potency on a negative log scale. Low values mean a weaker antagonist, high ones a more potent antagonist. With `COc1cc2nc(N3CCN(C(=O)c4ccco4)C(C)[C@H]3C)nc(N)c2cc1OC` (stereo in doubt; 9) [listing 1 of 2 here], the pA2 in experiment [1] worked out at 6.41; in experiment [2], 8.75.

On to `CCC1[C@@H](CC)N(c2nc(N)c3cc(OC)c(OC)cc3n2)CCN1C(=O)c1ccco1` (stereo in doubt; 11) [listing 1 of 2 here], for which the pA2 in experiment [1] stood at 5.91; in experiment [2], 8.55.

Turning to `CCC1[C@@H](CC)N(c2nc(N)c3cc(OC)c(OC)cc3n2)CCN1C(=O)c1ccco1` (stereo in doubt; 12) [listing 1 of 2 here], the Selectivity ratio in experiment [3] amounted to 110.

In the case of `COc1cc2nc(N3CCN(C(=O)c4ccco4)C[C@H]3C)nc(N)c2cc1OC`, the pA2 in experiment [1] worked out at 5.94; in experiment [2] it was 8.13. For the same compound, the Selectivity ratio in experiment [3] stood at 150.

In the case of `COc1cc2nc(N(C)CCCCCCN(C)C(=O)c3ccco3)nc(N)c2cc1OC`, in experiment [3], the Selectivity ratio came out at 120.

In the case of `COc1cc2nc(N3CCN(C(=O)c4ccco4)C(C)C3)nc(N)c2cc1OC` (stereo not drawn), the pA2 in experiment [1] is 5.23; in experiment [2], 8.61. In addition, the Selectivity ratio in experiment [3] came out at 2100.

For the compound `COc1cc2nc(NC3CCCCC3NC(=O)c3ccco3)nc(N)c2cc1OC` (trans isomer) [listing 1 of 2 here], in experiment [3], the Selectivity ratio amounted to 11.

Turning to `COc1cc2nc(N(C)[C@@H]3CCCCC3N(C)C(=O)c3ccco3)nc(N)c2cc1OC` (stereo in doubt; 5) [listing 1 of 2 here], the Selectivity ratio in experiment [3] was determined as 2.5.

As for `COc1cc2nc(N3CCN(C(=O)c4ccco4)C(C)[C@H]3C)nc(N)c2cc1OC` (stereo in doubt; 10) [listing 1 of 2 here], the Selectivity ratio in experiment [3] amounted to 180.

`COc1cc2nc(NC3CCCCC3NC(=O)c3ccco3)nc(N)c2cc1OC` (cis isomer) [listing 1 of 2 here]: the pA2 in experiment [1] is given as 5.96; in experiment [2], 5.74.

Regarding `COc1cc2nc(NC3CCCCC3NC(=O)c3ccco3)nc(N)c2cc1OC` (cis isomer) [listing 2 of 2 here], in experiment [3], the Selectivity ratio turned out to be 0.6.

In the case of `CCC1[C@@H](CC)N(c2nc(N)c3cc(OC)c(OC)cc3n2)CCN1C(=O)c1ccco1` (stereo in doubt; 11) [listing 2 of 2 here], the Selectivity ratio in experiment [3] came out at 440.

Turning to `COc1cc2nc(N3CCN(C(=O)c4ccco4)C(C)[C@H]3C)nc(N)c2cc1OC` (stereo in doubt; 9) [listing 2 of 2 here], the Selectivity ratio in experiment [3] is 220.

As to `COc1cc2nc(NC3CCCCC3NC(=O)c3ccco3)nc(N)c2cc1OC` (trans isomer) [listing 2 of 2 here], the figures for the pA2 in experiment [1] and in experiment [2] were 5.04 and 6.07, respectively.

Turning to `COc1cc2nc(N(C)[C@@H]3CCCCC3N(C)C(=O)c3ccco3)nc(N)c2cc1OC` (stereo in doubt; 6) [listing 1 of 2 here], the figures for the pA2 in experiment [1] and in experiment [2] were 5.54 and 5.64, respectively.

As to `CCC1[C@@H](CC)N(c2nc(N)c3cc(OC)c(OC)cc3n2)CCN1C(=O)c1ccco1` (stereo in doubt; 12) [listing 2 of 2 here], the pA2 was 5.05 in experiment [1] and 7.09 in experiment [2].

Turning to `COc1cc2nc(N3CCN(C(=O)c4ccco4)C4CCCC[C@@H]43)nc(N)c2cc1OC` (stereo in doubt; 13), the pA2 in experiment [1] came out at 5.08.

Turning to `COc1cc2nc(N(C)[C@@H]3CCCCC3N(C)C(=O)c3ccco3)nc(N)c2cc1OC` (stereo in doubt; 5) [listing 2 of 2 here], the figures for the pA2 in experiment [1] and in experiment [2] were 5.41 and 5.8, respectively.

Regarding `COc1cc2nc(N3CCN(C(=O)c4ccco4)C(C)[C@H]3C)nc(N)c2cc1OC` (stereo in doubt; 10) [listing 2 of 2 here], the pA2 was found to be 4.86 in experiment [1] and 7.12 in experiment [2].

For the compound `COc1cc2nc(N3CCN(C(=O)c4ccco4)C4CCCC[C@@H]43)nc(N)c2cc1OC` (stereo in doubt; 14), in experiment [1], the pA2 is on record as 5.15.

Turning to `COc1cc2nc(N(C)[C@@H]3CCCCC3N(C)C(=O)c3ccco3)nc(N)c2cc1OC` (stereo in doubt; 6) [listing 2 of 2 here], in experiment [3], the Selectivity ratio is 1.2.
